Patent publication US20100021893A1, “Modulators of lanosterol synthetase for treating acne or hyperseborrhea” (GALDERMA RESEARCH & DEVELOPMENT, priority 2006, published 2010)

Tested on: mRNA for lanosterol synthetase in the mouse preputial gland
Settings: gonadectomized male mice, short-term treatment, Affymetrix, effect visible at 18, 24 and 96 hours
Procedure: The expression of the genes was analyzed on an Affymetrix station (microfluidic model; hybridization oven; scanner; computer) following the protocols provided by the company. Briefly, the total RNA isolated from the tissues is transcribed to cDNA. From the double-stranded cDNA, a cRNA labeled with biotin is synthesized using T7 polymerase and a precursor NTP conjugated to biotin. The cRNAs are then fragmented to small sized fragments. All the molecular biology steps are checked using the Agilent “Lab on a chip” system in order to confirm the good efficiencies of the enzymatic reactions. The Affymetrix chip is hybridized with the biotinylated cRNA, rinsed and then fluorescence labeled using a fluorophore conjugated to streptavidin. After washings, the chip is scanned and the results are calculated using the MAS5 software provided by Affymetrix. An expression value is obtained for each gene as well as the indication of the significance of the value obtained. […]
The gene expression was analyzed using the Affymetrix technology described above (FIG. 1A) and the results were then confirmed by the real-time PCR technique (FIG. 1B).
B. Male mice were gonadectomized and were then treated with the vehicle or DHT. […] The RNA was isolated and the expression of the genes was analyzed by the Affymetrix technique. […]

SMILES: C[C@]12CCC(=O)C[C@@H]1CC[C@@H]1[C@@H]2CC[C@]2(C)[C@@H](O)CC[C@@H]12 [DHT, Dihydrotestosterone]
- level of expression of the mRNA for lanosterol synthetase: induced
